According to US20070111993A1, “Pharmaceutical composition comprising a salt of mirtazapine” (AKZO NOBEL N.V., priority 2004, published 2007):
Values joined by “and” are separate entries in the source; they are usually repeats but may differ in a detail not shown here. Equal entries are not always repeated.

Experiments:
Assay type in all cases: physicochemical
[1] = Sublimation test (cold finger, HPLC quantification of sublimate); conditions: for Sublimation (result in words): conditions of the sublimation test, non-sublimating = less than 1% in 72 hours at 150 mBar, 60° C.; for Sublimate: drug substance, Pressure: 150 mbar, Test period: 72 hrs
From the text: The property of sublimation can be observed and quantified with known methods to measure sublimation. For example, sublimation can be measured in an apparatus with a chamber in which the test compound is placed in its solid state and maintained in that state by controlled temperature. The gas phase in the chamber, optionally under low pressure, can be analyzed for content of test compound. It is also possible to continuously clear the test compound in the gas phase from the chamber either by a continuous renewal stream of a gas or by creating a sink for the test compound out of the gas phase, for example by a cold surface. The amount of material collected from sublimation or escaped from the sample by sublimation can be analyzed. The degree of sublimation is expressed as the fraction (as percentage) of the initial sample size.
The term ‘non-sublimating’ salt is defined to be a salt of S- or R-mirtazapine, from which less than 1% of the mirtazapine is sublimating from the sample, calculated on the basis of the amount of the base, when a sample of approximately 10 mg (for example an amount between 8-12 mg) is placed for the duration of 72 hours under standard conditions of 150 mBar pressure and 60° C. temperature.
Figure: Schematic presentation of the sublimation test equipment. A sample is placed on the bottom of a vessel, which is closed at the top by a vessel-shaped stopper into which cooling liquid (CL) is circulating and which vessel has an outlet connected to a vacuum pump (Vac). The vessel is placed in a closed chamber under constant temperature control (TC). A sublimate (Subl) can accumulate against the surface of the stopper within the vessel.
A sample (approximately 10 mg) was placed in a sample chamber of sublimation test equipment as illustrated in FIG. 1. The temperature in the sample chamber is controllable. The sample holder has a reduced pressure, which was 150 mBar by default. The sample chamber also consists of a section with reduced temperature (the “cold finger”), where the temperature is approximately 5° C. The majority of material that sublimates in the test sample with high temperature will precipitate on the cold finger. The amount of material on the cold finger after a test period of 72 hrs has been quantified using HPLC analysis. The degree of sublimation is expressed as the fraction material on the cold finger (as percentage) of the initial sample size. Additionally, the sublimation of active compound from tablets “drug product” has been tested.

[2] = Sublimation observations outside the standard test
[3] = Hygroscopicity (dynamic vapor sorption / water uptake from air); conditions: for Hygroscopicity / affinity for water: environmental air, ambient conditions, method not stated; for Hygroscopicity: dynamic vapor sorption measurement
Experimental: To a solution of 3.01 g of S-mirtazapine in 5 ml of methanol was added at room temperature a solution of 1290 μl of hydrobromic acid in 20 ml of ethyl acetate. […] The mixture was cooled to 0° C. whereupon crystallization started. The white crystals were collected by filtration and were dried in a vacuum oven at 40° C. […] A water free drug substance sample attracts water when it comes in contact with environmental air, while it may loose water upon drying.

[4] = Temperature: 60° C., DL = level of detection

CN1CCN2c3ncccc3Cc3ccccc3C2C1.O=C(O)C(F)(F)F (stereo not drawn) [S-mirtazapine trifluoroacetic acid salt]
Sublimation (result in words) ([1]; listed as trifluoroacetic acid salt of S- or R-mirtazapine, trifluoroacetic acid salt): showed sublimation | Sublimation (result in words) ([1]; trifluoroacetic acid salt): not a non-sublimating salt

CN1CCN2c3ncccc3Cc3ccccc3[C@H]2C1 [S-mirtazapine, 1,2,3,4,10,14b-hexahydro-2-methyl-pyrazino[2,1-a]pyrido[2,3-c][2]benzazepine, reference compound]
Sublimation at ambient temperature ([2]; ambient temperature): slowly sublimating | Sublimation (result in words) [1]: sublimates at the conditions used | Sublimate ([1]; Temperature: 40° C., fraction of initial sample on cold finger, listed as S-mirtazapine Batch E): 0.75% | Sublimate ([1]; Temperature: 40° C., fraction of initial sample on cold finger, listed as S-mirtazapine Batch J): 0.88% | Sublimate ([1]; Temperature: 60° C., DL = level of detection, listed as S-mirtazapine Batch E): 5.32% and 2.22% | Sublimate ([1]; Temperature: 60° C., DL = level of detection, listed as S-mirtazapine Batch J): 4.29%

Br.CN1CCN2c3ncccc3Cc3ccccc3[C@H]2C1 [S-mirtazapine•HBr, S-mirtazapine hydrobromic acid salt]
Hygroscopicity / affinity for water [3]: forms a monohydrate under ambient conditions | Sublimation (result in words) [1]: do not sublimate

CN1CCN2c3ncccc3Cc3ccccc3[C@H]2C1.Cl [S-mirtazapine•HCl, S-mirtazapine hydrochloric acid salt]
Temperature above which the compound starts to sublime [2]: above 170 °C | Hygroscopicity [3]: very hygroscopic | Sublimate [1, 4]: 0.2%

CN1CCN2c3ncccc3Cc3ccccc3[C@H]2C1.O=C(O)/C=C/C(=O)O [S-mirtazapine•fumaric acid, S-mirtazapine fumaric acid salt]
Hygroscopicity / affinity for water [3]: attracts water from environmental air to form a hydrate | Sublimation (result in words) [1]: do not sublimate

CN1CCN2c3ncccc3Cc3ccccc3[C@H]2C1.O=C(O)/C=C\C(=O)O [S-mirtazapine•maleic acid, S-mirtazapine maleic acid salt]
Hygroscopicity [3]: not hygroscopic | Hygroscopicity / affinity for water [3]: not hygroscopic | Sublimation (result in words) [1]: do not sublimate

CN1CCN2c3ncccc3Cc3ccccc3C2C1.CS(=O)(=O)O (stereo not drawn) [S-mirtazapine•methanesulfonic acid, S-mirtazapine methanesulfonic acid salt]
Hygroscopicity / affinity for water [3]: non-hygroscopicity | Sublimation (result in words) [1]: non-sublimation | Sublimate [1, 4]: 0.1% and 0.0%
